PubChem BioAssay (NCI)
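Values below derive from 48-hour exposures of cells grown in 96-well plates, with endpoints linearly interpolated between the two concentrations bracketing the appropriate inhibition level. At the TGI there is no net growth.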

Assays:
Experiment in all cases: NCI anticancer screen, dose series, 48 h
DU-145 prostate = system: DU-145 prostate
SF-295 CNS = system: SF-295 CNS
SNB-75 CNS = system: SNB-75 CNS
NCI-H226 lung = system: NCI-H226 lung
OVCAR-3 ovarian = system: OVCAR-3 ovarian
NCI-H460 lung = system: NCI-H460 lung
HOP-62 NSCLC = system: HOP-62 NSCLC
NCI/ADR-RES ovarian = system: NCI/ADR-RES ovarian
HCC-2998 colon = system: HCC-2998 colon
HT29 colon = system: HT29 colon
SK-MEL-28 melanoma = system: SK-MEL-28 melanoma
RXF 393 renal = system: RXF 393 renal
HOP-92 NSCLC = system: HOP-92 NSCLC
RPMI-8226 leukemia = system: RPMI-8226 leukemia
NCI-H522 lung = system: NCI-H522 lung
MALME-3M melanoma = system: MALME-3M melanoma
SR leukemia = system: SR leukemia
K-562 leukemia = system: K-562 leukemia
HS 578T breast = system: HS 578T breast
MCF7 breast = system: MCF7 breast
OVCAR-8 ovarian = system: OVCAR-8 ovarian
786-0 renal = system: 786-0 renal
MOLT-4 leukemia = system: MOLT-4 leukemia
SF-539 CNS = system: SF-539 CNS
T-47D breast = system: T-47D breast
IGROV1 ovarian = system: IGROV1 ovarian
SF-268 CNS = system: SF-268 CNS
CAKI-1 renal = system: CAKI-1 renal
UACC-257 melanoma = system: UACC-257 melanoma
SNB-19 CNS = system: SNB-19 CNS
A549 NSCLC = system: A549 NSCLC
NCI-H23 lung = system: NCI-H23 lung
ACHN renal = system: ACHN renal
SW-620 colon = system: SW-620 colon
SN12C renal = system: SN12C renal
OVCAR-4 ovarian = system: OVCAR-4 ovarian
LOX IMVI melanoma = system: LOX IMVI melanoma
SK-OV-3 ovarian = system: SK-OV-3 ovarian
SK-MEL-2 melanoma = system: SK-MEL-2 melanoma
TK-10 renal = system: TK-10 renal
UACC-62 melanoma = system: UACC-62 melanoma
M14 melanoma = system: M14 melanoma
HCT-116 colon = system: HCT-116 colon
PC-3 prostate = system: PC-3 prostate
BT-549 breast = system: BT-549 breast
KM12 colon = system: KM12 colon
HCT-15 colon = system: HCT-15 colon
OVCAR-5 ovarian = system: OVCAR-5 ovarian
COLO 205 colon = system: COLO 205 colon
MDA-N = system: MDA-N
CCRF-CEM leukemia = system: CCRF-CEM leukemia
EKVX NSCLC = system: EKVX NSCLC
SK-MEL-5 melanoma = system: SK-MEL-5 melanoma
U251 CNS = system: U251 CNS
HL-60(TB) leukemia = system: HL-60(TB) leukemia
UO-31 renal = system: UO-31 renal
MDA-MB-231 breast = system: MDA-MB-231 breast
MDA-MB-435 = system: MDA-MB-435
A498 renal = system: A498 renal

Measured: TGI

COc1cc(C(=O)O)ccc1OS(=O)(=O)O
not listed: A498 renal
> 100 µM: all other assays above

Cc1ccccc1OC(C)C(=O)NN1C(=O)CC(=O)NC1=S (stereo unspecified)
not listed: CCRF-CEM leukemia
> 100 µM: all other assays above
